Patent US7045631B2, “Substituted 2-thio-3, 5-dicyano-4-phenyl-6-aminopyridines and their use as adenosine receptor-selective ligands” (Bayer Aktiengesellschaft, priority 2001, dated 2006)

Legend:
adenosine A1 receptors = biological target: T1, adenosine A1 receptors (Homo sapiens, UniProt P30542); assay: Adenosine agonism indirectly by way of gene expression (luciferase test), A1 cells; format: cell-based; conditions: percent following prestimulation of adenylate cyclase with 1 μ molar forskolin (=100%), agonists give <100%
T1 construct: expressed in transfected cells; host or cells: CHO (Chinese Hamster Ovary)
T1 sequence (P30542 1-326): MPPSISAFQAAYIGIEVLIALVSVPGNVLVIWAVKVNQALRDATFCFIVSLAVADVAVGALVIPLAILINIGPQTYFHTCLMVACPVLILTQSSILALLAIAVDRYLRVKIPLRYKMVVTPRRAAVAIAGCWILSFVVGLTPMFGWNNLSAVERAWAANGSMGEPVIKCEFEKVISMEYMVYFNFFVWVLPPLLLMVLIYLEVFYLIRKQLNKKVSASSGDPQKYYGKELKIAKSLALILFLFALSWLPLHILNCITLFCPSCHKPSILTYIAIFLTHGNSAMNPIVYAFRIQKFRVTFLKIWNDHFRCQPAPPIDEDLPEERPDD
Description: (§1) Cells of the CHO (Chinese Hamster Ovary) permanent cell line are transfected stably with the cDNA for the adenosine receptor subtypes A1, A2a and A2b. The adenosine A1 receptors are coupled to the adenylate cyclase by way of Gi proteins, while the adenosine A2a and A2b receptors are coupled by way of Gs proteins. In correspondence with this, the formation of cAMP in the cell is inhibited or stimulated, respectively. After that, expression of the luciferase is modulated by way of a cAMP-dependent promoter. The luciferase test is optimized, with the aim of high sensitivity and reproducibility, low variance and good suitability for implementation on a robot system, by varying several test parameters, such as cell density, duration of the growth phase and the test incubation, forskolin concentration and medium composition. The following test protocol is used for pharmacologically characterizing cells and for the robot-assisted substance test screening:
(§2) The stock cultures are grown, at 37° C. and under 5% CO2, in DMEM/F12 medium containing 10% FCS (foetal calf serum) and in each case split 1:10 after 2–3 days. The test cultures are seeded in 384-well plates at the rate of from 1 000 to 3 000 cells per well and grown at 37° C. for approx. 48 hours. […] After that, 35 μl of a solution which is composed of 50% lysis reagent (30 mM disodium hydrogenphosphate, 10% glycerol, 3% TritonX100, 25 mM TrisHCl, 2 mM dithiothreitol (DTT), pH 7.8) and 50% luciferase substrate solution (2.5 mM ATP, 0.5 mM luciferin, 0.1 mM coenzyme A, 10 mM tricine, 1.35 mM magnesium sulphate, 15 mM DTT, pH 7.8) are added to the test cultures, the plates are shaken for approx. 1 minute and the luciferase activity is measured using a camera system.
(§3) The table gives the % values of the corresponding reference stimulus. The measured values for the A2a and A2b receptors are values in percent of the maximum stimulation achieved by NECA; the measured values for the A1 receptor are values in percent following direct prestimulation of the adenylate cyclase with 1μ molar forskolin (corresponds to the 100% value).

[1] = Pharmacokinetic investigations, mouse; format: in vivo, mice; conditions: plasma, po, 1 mg/kg p.o., read-out: Bioavailability following oral administration
Protocol: (§4) Pharmacokinetic data were determined after administering various substances i.v. or p.o. as solutions to mice, rats and dogs. For this, blood samples were collected up to 24 hours after administration. The concentrations of the unaltered substance were determined by bioanalytical methods (HPLC or HPLC-MS) in the plasma samples which were obtained from the blood samples. Pharmacokinetic parameters were subsequently ascertained from the plasma concentration time courses which had been obtained in this way. The following Table 2 gives the bioavailability in the different species.

[2] = Pharmacokinetic investigations, rat; format: in vivo, rats; conditions: plasma, po, 1 mg/kg p.o., read-out: Bioavailability following oral administration
Protocol: as §4

adenosine A2a receptors = biological target: T2, adenosine A2a receptors (Homo sapiens, UniProt P29274); assay: Adenosine agonism indirectly by way of gene expression (luciferase test), A2a cells; format: cell-based; conditions: percent of the maximum stimulation achieved by NECA
T2 construct: expressed in transfected cells; host or cells: CHO (Chinese Hamster Ovary)
T2 sequence (P29274 whole entry): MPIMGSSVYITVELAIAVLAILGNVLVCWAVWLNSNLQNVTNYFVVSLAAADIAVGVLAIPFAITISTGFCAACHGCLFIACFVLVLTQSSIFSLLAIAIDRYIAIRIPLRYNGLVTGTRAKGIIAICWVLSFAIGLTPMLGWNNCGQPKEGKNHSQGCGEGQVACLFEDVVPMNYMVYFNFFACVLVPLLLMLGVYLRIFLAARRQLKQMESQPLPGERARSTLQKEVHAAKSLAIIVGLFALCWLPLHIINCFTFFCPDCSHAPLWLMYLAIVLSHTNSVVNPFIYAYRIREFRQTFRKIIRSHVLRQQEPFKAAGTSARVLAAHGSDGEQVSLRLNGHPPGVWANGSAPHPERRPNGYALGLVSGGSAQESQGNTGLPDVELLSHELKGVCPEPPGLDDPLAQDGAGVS
Description: as §1, §2, §3

adenosine A2b receptors = biological target: T3, adenosine A2b receptors (Homo sapiens, UniProt P29275); assay: Adenosine agonism indirectly by way of gene expression (luciferase test), A2b cells; format: cell-based; conditions: percent of the maximum stimulation achieved by NECA
T3 construct: expressed in transfected cells; host or cells: CHO (Chinese Hamster Ovary)
T3 sequence (P29275 1-332): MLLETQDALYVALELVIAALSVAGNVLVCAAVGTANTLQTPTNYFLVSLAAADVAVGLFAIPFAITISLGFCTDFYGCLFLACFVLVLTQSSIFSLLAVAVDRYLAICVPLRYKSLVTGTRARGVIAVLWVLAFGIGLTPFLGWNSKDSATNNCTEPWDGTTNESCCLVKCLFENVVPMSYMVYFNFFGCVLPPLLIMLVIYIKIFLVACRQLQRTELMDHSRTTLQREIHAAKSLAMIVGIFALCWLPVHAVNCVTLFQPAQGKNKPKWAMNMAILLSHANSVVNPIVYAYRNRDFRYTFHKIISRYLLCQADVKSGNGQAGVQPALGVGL
Description: as §1, §2, §3

[3] = Pharmacokinetic investigations, dog; format: in vivo, dogs; conditions: plasma, po, 1 mg/kg p.o., read-out: Bioavailability following oral administration
Protocol: as §4

Structure (SMILES): CC(=O)Nc1ccc(-c2c(C#N)c(N)nc(SCc3ccccn3)c2C#N)cc1 [Example 1, N-(4-{2-Amino-3,5-dicyano-6-[(2-pyridinylmethyl)sulphanyl]-4-pyridinyl}-phenyl)acetamide]
- Stimulation of adenosine receptors, A1, % of the reference stimulus (adenosine A1 receptors; 0.3 nmol compound): 44%
- Stimulation of adenosine receptors, A1, % of the reference stimulus (adenosine A1 receptors; 1 nmol compound): 9%
- Stimulation of adenosine receptors, A1, % of the reference stimulus (adenosine A1 receptors; 10 nmol compound): 5%
- bioavailability [1]: 22.1%
- bioavailability [2]: 4.6%
- Stimulation of adenosine receptors, A2a, % of the reference stimulus (adenosine A2a receptors; 0.3 nmol compound): 1%
- Stimulation of adenosine receptors, A2a, % of the reference stimulus (adenosine A2a receptors; 1 nmol compound): 24%
- Stimulation of adenosine receptors, A2a, % of the reference stimulus (adenosine A2a receptors; 10 nmol compound): 57%
- Stimulation of adenosine receptors, A2b, % of the reference stimulus (adenosine A2b receptors; 0.3 nmol compound): 29%
- Stimulation of adenosine receptors, A2b, % of the reference stimulus (adenosine A2b receptors; 1 nmol compound): 64%
- Stimulation of adenosine receptors, A2b, % of the reference stimulus (adenosine A2b receptors; 10 nmol compound): 88%
- bioavailability [3]: 48.2%
